# PubChem BioAssay AID2060510 (Molecular Pharmacology Branch, DTP, NCI, 2025)
# pIC50: −log10 of the molar value.
# System: 439559-082-T-J2-PDC spheroids viability
# Assay: Anticancer human tumor 439559-082-T-J2-PDC patient-derived colon adenocarcinoma cell line growth inhibition [GQUAD]
# Settings: for pIC50: curve of first compound; for viability, T/C: stronger effect = lower value
# Procedure, shortened: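 Multi-cell-type spheroids of tumor cells with HUVEC and mesenchymal stem cells, treated with drug combinations. Concentrations descend in half-log steps from near clinical Cmax, or from 10 microM where Cmax is unknown; viability read-out.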
# [1] = second compound 0.0316 µM, first compound 0.0316 µM
# [2] = second compound 0.0316 µM, first compound 0.1 µM
# [3] = second compound 0.0316 µM, first compound 0.316 µM
# [4] = second compound 0.0316 µM, first compound 1 µM
# [5] = second compound 0.0316 µM, first compound 3.16 µM
# [6] = second compound 0.0316 µM, first compound 10 µM
# [7] = second compound 0.1 µM, first compound 0.0316 µM
# [8] = second compound 0.1 µM, first compound 0.1 µM
# [9] = second compound 0.1 µM, first compound 0.316 µM
# [10] = second compound 0.1 µM, first compound 1 µM
# [11] = second compound 0.1 µM, first compound 3.16 µM
# [12] = second compound 0.1 µM, first compound 10 µM
# [13] = second compound 0.316 µM, first compound 0.0316 µM
# [14] = second compound 0.316 µM, first compound 0.1 µM
# [15] = second compound 0.316 µM, first compound 0.316 µM
# [16] = second compound 0.316 µM, first compound 1 µM
# [17] = second compound 0.316 µM, first compound 3.16 µM
# [18] = second compound 0.316 µM, first compound 10 µM
# [19] = second compound 1 µM, first compound 0.0316 µM
# [20] = second compound 1 µM, first compound 0.1 µM
# [21] = second compound 1 µM, first compound 0.316 µM
# [22] = second compound 1 µM, first compound 1 µM
# [23] = second compound 1 µM, first compound 3.16 µM
# [24] = second compound 1 µM, first compound 10 µM
# [25] = second compound 3.16 µM, first compound 0.0316 µM
# [26] = second compound 3.16 µM, first compound 0.1 µM
# [27] = second compound 3.16 µM, first compound 0.316 µM
# [28] = second compound 3.16 µM, first compound 1 µM
# [29] = second compound 3.16 µM, first compound 3.16 µM
# [30] = second compound 3.16 µM, first compound 10 µM
# [31] = second compound 10 µM, first compound 0.0316 µM
# [32] = second compound 10 µM, first compound 0.1 µM
# [33] = second compound 10 µM, first compound 0.316 µM
# [34] = second compound 10 µM, first compound 1 µM
# [35] = second compound 10 µM, first compound 3.16 µM
# [36] = second compound 10 µM, first compound 10 µM
# 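Further: spheroids exposed to the agents for 7 days before readout.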
# 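Wherever viability, T/C is given: percent of luminescence signal in DMSO vehicle wells taken as 100% viability.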
smiles,measurement,setting,value
C=CCn1c(=O)c2cnc(Nc3ccc(N4CCN(C)CC4)cc3)nc2n1-c1cccc(C(C)(C)O)n1 + Cc1cnc(CNC(=O)c2c(=O)c3ccc(N4CCCN(C)CC4)nc3n3c2sc2ccccc23)cn1,pIC50,second compound 0.0316 µM,5.58
same,pIC50,second compound 0.1 µM,5.60
same,pIC50,second compound 0.316 µM,5.76
same,pIC50,second compound 1 µM,5.85
same,pIC50,second compound 3.16 µM,5.89
same,pIC50,second compound 10 µM,5.97
same,"viability, T/C",[1],95.4%
same,"viability, T/C",[2],93.7%
same,"viability, T/C",[3],88.8%
same,"viability, T/C",[4],83.7%
same,"viability, T/C",[5],43.2%
same,"viability, T/C",[6],25.4%
same,"viability, T/C",[7],104%
same,"viability, T/C",[8],83.6%
same,"viability, T/C",[9],91.4%
same,"viability, T/C",[10],76%
same,"viability, T/C",[11],43.1%
same,"viability, T/C",[12],22.2%
same,"viability, T/C",[13],84.6%
same,"viability, T/C",[14],87.5%
same,"viability, T/C",[15],73.5%
same,"viability, T/C",[16],66.3%
same,"viability, T/C",[17],33.8%
same,"viability, T/C",[18],24%
same,"viability, T/C",[19],83.2%
same,"viability, T/C",[20],87.9%
same,"viability, T/C",[21],72.1%
same,"viability, T/C",[22],61.8%
same,"viability, T/C",[23],27.3%
same,"viability, T/C",[24],20.2%
same,"viability, T/C",[25],73.3%
same,"viability, T/C",[26],63.6%
same,"viability, T/C",[27],68.3%
same,"viability, T/C",[28],56.8%
same,"viability, T/C",[29],25.1%
same,"viability, T/C",[30],18.5%
same,"viability, T/C",[31],66.2%
same,"viability, T/C",[32],53.9%
same,"viability, T/C",[33],61.2%
same,"viability, T/C",[34],51.1%
same,"viability, T/C",[35],31.2%
same,"viability, T/C",[36],13.8%
CCCS(=O)(=O)Nc1ccc(F)c(C(=O)c2c[nH]c3ncc(-c4ccc(Cl)cc4)cc23)c1F + Cc1cnc(CNC(=O)c2c(=O)c3ccc(N4CCCN(C)CC4)nc3n3c2sc2ccccc23)cn1,pIC50,second compound 0.0316 µM,< 5.00
same,pIC50,second compound 0.1 µM,< 5.00
same,pIC50,second compound 0.316 µM,< 5.00
same,pIC50,second compound 1 µM,5.02
same,pIC50,second compound 3.16 µM,5.19
same,pIC50,second compound 10 µM,5.42
same,"viability, T/C",[1],97.5%
same,"viability, T/C",[2],103%
same,"viability, T/C",[3],103%
same,"viability, T/C",[4],101%
same,"viability, T/C",[5],101%
same,"viability, T/C",[6],77.1%
same,"viability, T/C",[7],96.9%
same,"viability, T/C",[8],99.5%
same,"viability, T/C",[9],99.7%
same,"viability, T/C",[10],99.3%
same,"viability, T/C",[11],99.1%
same,"viability, T/C",[12],53.2%
same,"viability, T/C",[13],84.4%
same,"viability, T/C",[14],89.7%
same,"viability, T/C",[15],90%
same,"viability, T/C",[16],86.1%
same,"viability, T/C",[17],88.1%
same,"viability, T/C",[18],54%
same,"viability, T/C",[19],78.4%
same,"viability, T/C",[20],78.5%
same,"viability, T/C",[21],78%
same,"viability, T/C",[22],78.2%
same,"viability, T/C",[23],83.8%
same,"viability, T/C",[24],48.9%
same,"viability, T/C",[25],70.9%
same,"viability, T/C",[26],71.5%
same,"viability, T/C",[27],70.8%
same,"viability, T/C",[28],63.5%
same,"viability, T/C",[29],68.1%
same,"viability, T/C",[30],39.7%
same,"viability, T/C",[31],60.8%
same,"viability, T/C",[32],58.6%
same,"viability, T/C",[33],70.2%
same,"viability, T/C",[34],64.5%
same,"viability, T/C",[35],57.5%
same,"viability, T/C",[36],5.82%
